Laboratory results published in patent US10881639B2, “Use of composition of multivitamin in preparing drug for stimulating gastrointestinal system motility” (Zensun (Shanghai) Science & Technology, Co., Ltd., priority 2015, dated 2021).
Where a name gives a salt, the structure may show the parent alone.

System: mice with 2.5 mg/kg loperamide-induced constipation
Assay: Small intestinal propulsive rate of a charcoal solution in mice with 2.5 mg/kg loperamide-induced constipation, with positive controls (Example 2)
Assay type: in vivo, mouse
Conditions: for Effect on the small intestinal propulsive rate (%) vs model group, in words: positive drugs at 1× dose, loperamide-induced constipation mouse model; for Propulsive distance of the charcoal solution / Small intestinal propulsive rate: positive drugs intragastric: itopride 30.75, naloxone 5.0, domperidone 6.16, mosapride citrate 3.075 mg/kg, loperamide 2.5 mg/kg s.c., 20 min after charcoal
Excerpt: 1.2 Experimental Animals Species: mouse Strains: C57BL/6 Gender and quantity: Female, 65 Animal week-age: 8-9 weeks Weight range: 19.0-25.0 g Animal sources: Shanghai Lingchang Biotechnology Co. LTD Animal certificate number: 2013001804393 2. Experimental Design and Methods 2.1 Test Grouping:
Experimental animals were randomly divided into 8 groups (8 animals per group) by the random number table method.
2.2 Reagent Preparation 1) 0.5% CMC—Na solution: 2.0 g of CMC—Na powder was weighed and 300 ml ultra-pure water was slowly added thereto; the mixture was subjected to magnetic stirring until it was completely dissolved to reach a constant volume of 400 ml, thereby preparing a clear solution of 0.5%, which was stored at 4° C. for later use. 2) 1% Tween-80 in saline: 40 ml saline was accurately measured using a measuring cylinder and added into a 50 ml centrifuge tube; 400 μl Tween-80 was measured using a pipette and added into the centrifuge tube; and the mixture was subjected to vortex oscillation to be homogeneous and was then placed at room temperature for later use. 3) 5% charcoal solution: 100 g of Arabic gum was accurately weighed and 800 ml water was added thereto; and the solution was boiled until it was transparent. 50 g of activated carbon powder was weighed and added into the above solution and the mixture was boiled for three times. After the solution was cool, water was added to reach a constant volume of 1000 ml. 4) Group for the composition comprising B vitamins (9 components) and C vitamins (5×): one tablet of the composition comprising B vitamins (9 components) and C vitamins was taken; after its grinding, 19.5 ml of 0.5% CMC—Na was added; and the mixture was subjected to oscillation to become homogeneous, thereby forming a stable suspension. It was used immediately after its preparation. 5) Group for the composition comprising B vitamins (9 components) and C vitamins (1×): 2 ml of the suspension of the composition comprising B vitamins (9 components) and C vitamins (5×) was taken and 8 ml of 0.5% CMC—Na was added; and the mixture was subjected to oscillation to become homogeneous, thereby forming a stable suspension. It was used immediately after its preparation. 6) Domperidone: 32.52 ml of 0.5% CMC—Na was added after grinding of one domperidone tablet; and the mixture was subjected to oscillation to become homogeneous, thereby forming a stable suspension. It was used immediately after its preparation. 7) Mosapride citrate: 32.52 ml of 0.5% CMC—Na was added after grinding of one mosapride citrate tablet; and the mixture was subjected to oscillation to become homogeneous, thereby forming a stable suspension. It was used immediately after its preparation. […] It was used immediately after its preparation. […] It was used immediately after its preparation. 10) Loperamide: 5.0 mg of loperamide was accurately weighed and 20 ml of a saline solution with 1.0% Tween 80 was added thereto; after being subjected to oscillation to become homogeneous, the mixture was subjected to ultrasound for at least 5 minutes. This reagent was used immediately after it was prepared. 2.3 Test Methods
After 30 minutes of administration, the control group was injected subcutaneously with the saline solution containing 1.0% Tween 80 while the other groups were injected subcutaneously with a loperamide solution in an injection volume of 10 ml/kg. After a subcutaneous injection for 30 minutes, an intragastric administration of the charcoal solution was performed at an administration volume of 10 ml/kg^[1,2,3].
2.4 Observation Index Small intestinal propulsive rate of the charcoal solution (%)=(the propulsive distance of the charcoal solution/total length of the small intestine)×100
Twenty minutes after an intragastric administration of the charcoal solution, the animal was sacrificed by cervical dislocation and its abdominal cavity was immediately opened to separate the mesentery.

Structure (SMILES): COc1ccc(C(=O)NCc2ccc(OCCN(C)C)cc2)cc1OC [Itopride hydrochloride]
- Effect on the small intestinal propulsive rate (%) vs model group, in words: do not have the improvement effect
- Propulsive distance of the charcoal solution: 5.0 ± 1.2 cm
- Small intestinal propulsive rate (hydrochloride): 26.4 ± 7.0%
- Small intestinal propulsive rate (listed as itopride hydrochloride, hydrochloride): 26.4±7.0%

Structure (SMILES): C=CCN1CC[C@]23c4c5ccc(O)c4O[C@H]2C(=O)CC[C@@]3(O)[C@H]1C5 [Naloxone]
- Effect on the small intestinal propulsive rate (%) vs model group, in words: also has the improvement effect
- Propulsive distance of the charcoal solution: 3.9 ± 0.8 cm
- Small intestinal propulsive rate: 19.5 ± 3.8%

Structure (SMILES): O=c1[nH]c2ccccc2n1CCCN1CCC(n2c(=O)[nH]c3cc(Cl)ccc32)CC1 [Domperidone]
- Effect on the small intestinal propulsive rate (%) vs model group, in words: do not have the improvement effect
- Propulsive distance of the charcoal solution: 4.0 ± 1.1 cm
- Small intestinal propulsive rate: 20.1 ± 5.7%
- Small intestinal propulsive rate (listed as domperidone): 19.5±3.8%

Structure (SMILES): CCOc1cc(N)c(Cl)cc1C(=O)NCC1CN(Cc2ccc(F)cc2)CCO1 (stereo not drawn) [Mosapride Citrate, Mosapride citrate]
- Effect on the small intestinal propulsive rate (%) vs model group, in words: do not have the improvement effect
- Propulsive distance of the charcoal solution: 11.7 ± 2.1 cm
- Small intestinal propulsive rate: 60.7 ± 12.1 %
- Small intestinal propulsive rate (listed as mosapride citrate): 20.1±5.7%
